# Measurements: patent EP4772509A1, “KINESIN KIF18A INHIBITOR, AND APPLICATION THEREOF” (Shanghai Apeiron Therapeutics Company Limited, priority 2023, dated 2025)
# Where two headings read alike, the source gives them in different places.
# How the values were obtained:
# [1] = biological target: T1, Human KIF18A (amino acid sequence 1-417) (Homo sapiens, UniProt Q8NI77); experiment: Enzymatic activity test (ADP-Glo, microtubule-stimulated ATPase); format: biochemical; conditions: 60 µg/mL microtubules, 25 µM ATP, 2.5 nM KIF18A protein, 120 min at ambient temperature, chemiluminescence
# T1 construct: purchased Viva Biotech (Shanghai) Ltd
# T1 sequence (Q8NI77 1-417): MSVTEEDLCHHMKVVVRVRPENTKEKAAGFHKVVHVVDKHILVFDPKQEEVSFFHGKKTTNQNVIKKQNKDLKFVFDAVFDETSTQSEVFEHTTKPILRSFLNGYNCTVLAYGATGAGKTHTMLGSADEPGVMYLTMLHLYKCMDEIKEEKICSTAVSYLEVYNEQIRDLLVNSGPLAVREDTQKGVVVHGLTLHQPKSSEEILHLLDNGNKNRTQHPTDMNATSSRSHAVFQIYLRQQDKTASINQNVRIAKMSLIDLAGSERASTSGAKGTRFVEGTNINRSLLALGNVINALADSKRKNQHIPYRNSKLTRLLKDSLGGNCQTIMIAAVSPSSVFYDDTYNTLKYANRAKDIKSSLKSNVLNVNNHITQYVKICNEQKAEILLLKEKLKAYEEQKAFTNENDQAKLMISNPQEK
# Summary of the method: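 KIF18A (1-417) at 2.5 nM with 60 µg/mL microtubules and 25 µM ATP, compounds at 0-10 µM final, reacted 120 min at ambient temperature. ADP formed was read by ADP-Glo chemiluminescence after two 30 min room-temperature steps.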
# HT29 cells = experiment: CyQuant cell proliferation activity test; format: cell-based; conditions: HT29 at 2000 cells per well, 3 days, 0.2% DMSO, XLFIT
# Experimental: Materials and Cells: HT29 cells were purchased from Nanjing Cobioer Biosciences Co., Ltd.; RPMI-1640 medium, fetal bovine serum, Trypsin-EDTA (0.25%), 96-well plates, and CyQuant reagents were purchased from ThermoFisher (USA); DMSO was purchased from SIGMA (USA).
# Cell Culture: HT29 cells were cultured with RPMI-1640 containing 10% fetal bovine serum under the condition of 37°C and 5% CO2. Only cells in the logarithmic growth phase could be used for the test.
# Cell Proliferation Activity Test: CyQuant reagent was used to detect the proliferation inhibitory activity of compounds on HT29 cells. The cell density was adjusted, and 100 µL per well was inoculated into a 96-well plate (HT29 at 2000 cells per well), then incubated overnight at 37°C and 5% CO2. Add compounds of various target concentrations (initial concentration of 3000 nM, 3-fold dilution, 9 concentration gradients), and make the DMSO content 0.2%. The cell plate was incubated at 37°C in 5% CO2 for 3 days. CyQuant reagent was added and incubated for 1 h. The plates were read by Envision, and IC50 was calculated using XLFIT.
# OVCAR3 cells = experiment: Cell proliferation activity test (CyQUANT Direct); format: cell-based; conditions: 3 days, 0.2% DMSO, CyQUANT fluorescence
# Summary of the method: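 OVCAR3 cells in RPMI-1640 with 10% FBS were seeded, then treated overnight later with compound at final 0–10 µM (0.2% DMSO) for 3 days at 37°C, 5% CO2. Proliferation was read as CyQUANT Direct fluorescence after 60 min at 37°C.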
Compound,IC50 ([1]; read-out: KIF18A IC50),IC50 (HT29 cells; read-out: HT-29 IC50),IC50 (OVCAR3 cells),"IC50 (HT29 cells; Homo sapiens, HT-29, 72 h)","IC50 (OVCAR3 cells; Homo sapiens, OVCAR-3, 72 h)",IC50 ([1]; KIF18A IC50 nM)
"COc1cc2nc(n1)N1CCC(F)(F)C(/C=C\CC3CCN(CC3)c3cc(NS(=O)(=O)CCO)c4c(c3C(=O)N2)CCC4=O)C1 (stereo not drawn) [Example 5, N-(1^4,1^4-difluoro-2^6-methoxy-5^1,4-dioxo-5^2,5^3-dihydro-5^1H-3-aza-2(2,4)-pyrimidin-1(1,3),6(1,4)-dipiperidin-5(4,5)-indenoheterocyclononane-8-en-5^7-yl)-2-hydroxyethane-1-sulfonamide]",162 nM,,,42 nM,42 nM,
"Cc1cc2nc(n1)N1CCC(F)(F)C(CCc3ccc(cc3)-c3cc(NS(=O)(=O)CCO)ccc3C(=O)N2)C1 (stereo not drawn) [Example 45, N-(2^4,2^4-difluoro-1^6-methyl-7-oxo-8-aza-1(2,4)-pyrimidin-2(1,3)-piperidin-5(1,4),6(1,2)-dibenzylcycloophene-6^5-yl)-2-hydroxyethane-1-sulfonamide]",114 nM,,,100 nM,77 nM,
"Cc1cc2nc(n1)N1CCC(F)(F)C(/C=C/CC3CCN(CC3)c3cc(NS(=O)(=O)CCO)c4ccccc4c3C(=O)N2)C1 (single isomer, unassigned) [Example 1C, (trans)-N-(1^4,1^4-difluoro-2^6-methyl-4-oxo-3-aza-2(2,4)-pyrimidin-1(1,3),6(1,4)-dipiperidin-5(1,2)-naphthacyclonon-8-en-5 ^4-yl)-2-hydroxyethane-1-sulfonamide]",1060 nM,1020 nM,1020 nM,,,
"COc1cc2nc(n1)N1CCC(F)(F)C(C=CCc3cccc(c3)-c3cc(NS(=O)(=O)CCO)ccc3C(=O)N2)C1 (stereo not drawn) [Example 54, N-(1^4,1^4-difluoro-2^6-methoxy-4-oxo-3-aza-2(2,4)-pyrimidin-1(1,3)-piperidin-5(1,2),6(1,3)-diphenylheterocyclonon-8-en-5^4-yl)-2-hydroxyethane-1-sulfonamide]",,,,> 3000 nM,867 nM,1560 nM
"2-Hydroxy-N-(1^4,1^4,5^1,5^1-tetrafluoro-2^6-methyl-4-dioxo-5^2,5^3-dihydro-5^1H-3-aza-2(2,4)-pyrimidin-1(1,3),6(1,4)-dipipe ridin-5(4,5)-benzofurancyclononane-8-en-5^7-yl)-methanesulfonamide [Example 21]",450 nM,85 nM,78 nM,,,
"Cc1cc2nc(n1)N1CCC(F)(F)C(/C=C\CC3CCN(CC3)c3cc(NS(=O)(=O)CCO)c4c(c3C(=O)N2)CCC4)C1 (stereo not drawn) [Example 4, N-(1^4,1^4-difluoro-2^6-methyl-4-oxo-5^2,5^3-dihydro-5^1H-3-aza-2(2,4)-pyrimidin-1(1,3),6(1,4)-dipiperidin-5(4,5)-indenoheterocyclonon-8-en-5^7-yl)-2-hydroxyethane-1-sulfonamide]",404 nM,,,55 nM,49 nM,
"Cc1cc2nc(n1)N1CCC(F)(F)C(C=CCc3ccc(cc3)-c3cc(NS(=O)(=O)CCO)ccc3C(=O)N2)C1 (stereo not drawn) [Example 55, N-(1^4,1^4-difluoro-2^6-methyl-4-oxo-3-aza-2(2,4)-pyrimidin-1(1,3)-piperidin-5(1,2),6(1,4)-diphenylheterocyclonon-8-en-5^4-yl)-2-hydroxyethane-1-sulfonamide]",88 nM,,,29 nM,30 nM,
"Cc1cc2nc(n1)N1CCC(F)(F)[C@@H](CCCC3CCN(CC3)c3cc(NS(=O)(=O)CCO)c4c(c3C(=O)N2)CCC4=O)C1 [Example 10, N-((1^3S)-1^4,1^4-difluoro-2^6-methyl-5^1,4-dioxo-5^2,5^3-dihydro-5^1H-3-aza-2(2,4)-pyrimidin-1(1,3),6(1,4)-dipiperidin-5(4,5) -indenobicyclononane-5^7-yl)-2-hydroxyethane-1-sulfonamide]",43 nM,,,39 nM,36 nM,
"CCS(=O)(=O)Nc1cc2c(c3c1C(=O)CC3)C(=O)Nc1cc(C)nc(n1)N1CCC(F)(F)C(C=CCC3CCN2CC3)C1 (stereo not drawn) [Example 18, N-(1^4,1^4-difluoro-2^6-methyl-5^1,4-dioxo-5^2,5^3-dihydro-5^1H-3-aza-2(2,4)-pyrimidin-1(1,3),6(1,4)-dipiperidin-5(4,5)-indenoheterocyclonon-8-en-5^7-yl)-ethanesulfonamide]",67 nM,41 nM,38 nM,,,
"Cc1cc2nc(n1)N1CCC(F)(F)C(CCCc3ccn(c(=O)c3)-c3cc(NS(=O)(=O)CCO)ccc3C(=O)N2)C1 (stereo not drawn) [Example 52, N-(1^4,1^4-difluoro-2^6-methyl-6^2,4-dioxo-6^1,6^2-dihydro-3-aza-2(2,4)-pyrimidin-6(1,4)-pyridin-1(1,3)-piperidin-5(1,2)-phenylheterocyclononane-5^4-yl)-2-hydroxyethane-1-sulfonamide]",555 nM,,,> 3000 nM,> 3000 nM,
"Cc1cc2nc(n1)N1CCC(F)(F)C(/C=C\CC3CCN(CC3)c3cc(NS(=O)(=O)C(C)(C)CO)c4c(c3C(=O)N2)CCC4=O)C1 (stereo not drawn) [Example 12, (Z)-N-(1^4,1^4-difluoro-2^6-methyl-5^1,4-dioxo-5^2,5^3-dihydro-5^1hydro-3-aza-2(2,4)-pyrimidin-1(1,3),6(1,4)-dipiperidin-5(4, 5)-indenocyclonofin-8-en-5^7-yl)-1-hydroxy-2-methylpropane-2-sulfonamide]",172 nM,,,165 nM,96 nM,
"Cc1cc2nc(n1)N1CCC(F)(F)[C@@H](CCCC3CCN(CC3)c3cc(NS(=O)(=O)CCO)c4c(c3C(=O)N2)CCC4=O)C1 [Example 6, N-((1^3S)-1^4,1^4-difluoro-2^6-methyl-5^1,4-dioxo-5^2,5^3-dihydro-5^1H-3-aza-2(2,4)-pyrimidin-1(1,3),6(1,4)-dipiperidin-5(4,5) -indenoheterocyclononane-5^7-yl)-2-hydroxyethane-1-sulfonamide]",73 nM,,,41 nM,41 nM,

# Continued, in another order:
IC50 ([1]; read-out: KIF18A IC50),IC50 (HT29 cells; read-out: HT-29 IC50),IC50 (OVCAR3 cells),Compound,"IC50 (HT29 cells; Homo sapiens, HT-29, 72 h)","IC50 (OVCAR3 cells; Homo sapiens, OVCAR-3, 72 h)",IC50 ([1]; KIF18A IC50 nM)
35 nM,9 nM,8 nM,"Cc1cc2nc(n1)N1CCC(F)(F)C(C=CCC3CCN(CC3)c3cc(NS(=O)(=O)CCO)c4c(c3C(=O)N2)CCC4=O)C1 (single isomer, unassigned) [Example 2A, N-(1^4,1^4-difluoro-2^6-methyl-5^1,4-dioxo-5^2,5^3-dihydro-5^1H-3-aza-2(2,4)-pyrimidin-1(1,3),6(1,4)-dipiperidin-5(4,5)-indenoheterocyclonon-8-en-5^7-yl)-2-hydroxyethane-1-sulfonamide]",,,
427 nM,,,"COC(=O)c1cc2c(cc1NS(=O)(=O)CCO)N1CCC(C/C=C/C3CN(CCC3(F)F)c3nc(C)cc(n3)-c3cn-2nn3)CC1 (stereo not drawn) [Example 92A, methyl(3^4Z,7E)-1^4,1^4-difluoro-4^4-((2-hydroxyethyl)sulfonamido)-2^6-methyl 3^1H-2(2,4)-pyrimidin-1(1,3),5(1,4)-dipiperidin-3(4,1)-triazole-4(1,2)-benzocyclooct-7-en-4^5carboxylate]",154 nM,141 nM,
144 nM,74 nM,72 nM,"COc1cc2nc(n1)N1CCC(F)(F)C(CCCc3ccc(cc3)-c3cc(NS(=O)(=O)CCO)ccc3C(=O)N2)C1 (single isomer, unassigned) [Example 51B, N-(1^4,1^4-difluoro-2^6-methoxy-4-oxo-3-aza-2(2,4)-pyrimidin-1(1,3)-piperidin-5(1,2),6(1,4)-dibenzylcyclononane-5^4-yl)-2-hydroxyethane-1-sulfonamide]",,,
132 nM,29 nM,31 nM,"N-((3^4Z,7E)-1^4,1^4-difluoro-2^6-methyl-3^1H-2(2,4)-pyrimidin-1(1,3),5(1,4)-dipiperidin-3(4,1)-triazole-4(1,2)-benzocyclooct-7 -en-4^4-yl)-2-hydroxyethane-1-sulfonamide [Example 81D]",,,
